Legend:
C57BL/6 mouse embryos [1] = experiment: Morphometric parameters and resorptions of E15.5 mouse embryos with ethanol exposure and FA diet; assay type: in vivo
Source text: The C57Bl/6 mouse strain (Jackson Laboratories) was used.

C57BL/6 mouse embryos [2] = conditions: in vivo
Hex and Isl-1 expression = experiment: In situ hybridization of Hex and Isl-1 in avian embryos after EtOH exposure with or without FA; assay type: in vivo, avian (chick); conditions: 30% EtOH; HH stage 4; 8 hour incubation
chick embryos = experiment: Early embryonic chick culture: heart development (MF20) after HCy, Li or Wnt3A exposure, FA/inositol rescue; assay type: in vivo, chick (Gallus gallus)
Description: Pathogen-free White Leghorn chick (Gallus gallus; Charles River, Mass.) and quail (Coturnix coturnix japonica; Strickland Farms, Ga.) embryos were used to analyze the effects of HCy on early embryogenesis. The early processes of heart development are well conserved among vertebrates and the avian model allows for more precise timing of exposure in early embryos. The incubation methodology using agarose-albumin has been described previously (Darnell and Schoenwolf, 2000). Briefly, the experimental paradigm involved exposing specific early stages of chick embryos, at HH stages 4 to 7 (Hamburger and Hamilton, 1951), to different concentrations of HCy (L-homocysteine thiolactone hydrochloride, Sigma) made up in physiological saline. Final concentrations of HCy included 30 μM, 50 μM, 75 μM and 100 μM. The minimal teratogenic dose was determined empirically to be 50 μM. This fit within the concentration range of 30 μM to 300 μM used by others that induced heart defects at later stages of development (Boot et al., 2004). Control embryos were incubated using the vehicle, physiological saline, in the agarose-albumin medium. Control and experimental cultures were incubated on the agarose-albumin plates for either 8 or 24 hours.
Carrier-free, recombinant mouse Wnt3A was purchased from R&D Systems (Minneapolis, Minn.). Wnt3A concentrations were empirically tested to find those that would induce cardiac defects but maintain embryonic viability. Wnt3A was tested at concentrations of 2 ng, 10 ng, 20 ng, 50 ng and 100 ng per ml. Concentrations of 2 ng/ml and 10 ng/ml were both effective in inducing cardiac defects. Both Wnt3A concentrations were used in the FA rescue experiments, as described. For the FA rescue experiments, folate (folic acid, Sigma-Aldrich) was added at a concentration of 2 μg, 5 μg or 10 μg per ml. […] For the experiments using inositol (myo-inositol, Sigma) supplementation, a concentration of 50 mg/ml was used.
The main embryonic defects related to the timing of embryonic exposure; the regions that were primarily affected related to an anterior-to posterior (AP) wave of development along this embryonic axis. The exposure effects ranged from early effects (e.g. no cardiac tissue, heart development occurring anterior to neural tissue, cardiabifida) to later effects, such as wide hearts and left looping (Table 1). The cardiac phenotypes observed with early HCy exposure were similar, although not identical, to those obtained from previous studies of Li exposure on avian heart development (Manisastry et al., 2006). The Wnt/β-catenin modulated genes Hex and Isl1 in the chick embryo also were similarly repressed with HCy, as with Li in the chick cardiogenic region. […] Investigation of regulatory gene activity in chick embryos indicates Li, HCy and Wnt3A suppress Wnt-modulated genes Hex and Islet-1 in the heart fields.
To define the effective dose of Wnt3A needed to induce cardiac dysmorphogenesis, Wnt3A was tested at concentrations of 2 ng, 10 ng, 20 ng, 50 ng, and 100 ng per ml. The minimal effective doses of Wnt3A that induced cardiac and neural anomalies were 2 ng/ml and 10 ng/ml, respectively. Using these concentrations, the inventors analyzed whether FA supplementation of media at 10^3-fold higher concentrations, that is 2 μg/ml or 10 μg/ml, would provide protection against the augmentation of canonical Wnt3A signaling.

HTR-8/SVneo cells = experiment: In vitro wound assay of human trophoblast cell migration; assay type: cell-based; conditions: HCy exposure experiments; scrape wound
Source text: In previous studies by the inventors analyzing the effects of lithium and the metabolite homocysteine (HCy) on early heart development, the results were similar. Both factors inhibited Wnt/β-catenin-mediated gene expression during induction stages of cardiogenesis. […] Folate protects the embryo from these adverse effects (Han et al., 2009). It was also noted that normal placental development was adversely affected by Li and HCy. A human trophoblast cell line, HTR-8/SVneo cells, was used to determine whether Li or HCy affect the migration of these cells in vitro and whether FA or FA/myo-inositol would protect the cells from adverse effects of the two cardiac teratogens. HCy exposure experiments were conducted. […] The wound edges are depicted by a white line in B. In panel A, it can be seen that the wound area is smaller. Administration of a combination of FA/myo-inositol, FA alone or myo-inositol alone, enhanced the expression of NMHC-IIB and FN to facilitate cell migration.

[3] = system: Hex and Islet-1 (Isl1) gene expression; experiment: In situ hybridization of Hex and Isl1 in avian heart fields after Li, HCy or Wnt3A with or without FA; assay type: in vivo, chick; conditions: 8 hours of exposure; HH stages 3+/4
Description: In situ hybridizations on control and experimentally manipulated chick embryos were carried out using digoxigenin-labeled riboprobes with alkaline phosphatase detection (Linask et al., 2001). Images of whole-mounted chick embryos were taken with a Nikon DS-L2 camera unit. Probes for chick Hex were provided by Parker Antin, University of Arizona and probes for chick Islet-1 (Isl1) were provided by Thomas Jessell, Columbia University, NY.
Chick embryos (HH stages 3+/4) were incubated on agarose albumin supplemented with HCy (50 μM). Instead of giving a single injection in ovo, embryos were exposed to HCy for 8 hours in order to define the effect on early cardiac gene expression. Another group of embryos were exposed to HCy for 24 hours at which time the effects on gene expression were determined. To analyze the effects during the looping stages, incubation was stopped after between 22 and 24 hours. After the 8-hour incubation, Li and HCy suppressed Hex and Isl1 expression in the cardiogenic crescent (FIG. 5).
The inventors next analyzed whether FA rescues the downregulation of Hex and Isl1. Chick embryos were exposed to Li, HCy or Wnt3A, as above, with and without 10 μg/ml of FA; the experiments were terminated after either an 8-hour or 24-hour exposure period, at which time in situ hybridizations for gene expression were performed. After 8 hours of exposure, Li, HCy and Wnt3A all suppressed Hex (FIGS. 9D, G, J) and Isl1 (FIGS. 10D, G, J) compared with the control embryonic expression patterns (FIG. 9A; FIG. 10A). […] Thus, FA supplementation suppressed the potentiation of the inhibitory Wnt signaling, allowing for normal induction of Hex and Isl1 gene expression.

[4] = 30% EtOH 2.9 g/Kg twice i.p. on E6.75
[5] = 30% EtOH 3.5 g/Kg once i.p. on E6.75
[6] = HH stage 3 +/4, HCy 50 μM, Li 50 μM, FA 10 μM, inositol 280 mM

Molecule: CCO [EtOH, ethanol]
- Body Weight (C57BL/6 mouse embryos [1]; [4]): 0.37 g
- CRL (C57BL/6 mouse embryos [1]; [4]): 12.63 min
- Placenta Weight (C57BL/6 mouse embryos [1]; [4]): 0.10 g
- Body Weight (C57BL/6 mouse embryos [1]; [5]): 0.35 g
- CRL (C57BL/6 mouse embryos [1]; [5]): 11.40 min
- Placenta Weight (C57BL/6 mouse embryos [1]; [5]): 0.09 g
- DAPI (C57BL/6 mouse embryos [2]): 1.73
- DVPI (C57BL/6 mouse embryos [2]): 1.21
- E/A Ratio (C57BL/6 mouse embryos [2]): 0.29
- HR (C57BL/6 mouse embryos [2]): 205 bpm
- ICT % (C57BL/6 mouse embryos [2]): 10.09%
- IRT % (C57BL/6 mouse embryos [2]): 14.93%
- MPI (C57BL/6 mouse embryos [2]): 0.62
- OF (C57BL/6 mouse embryos [2]): 26.37 cm/s
- RR (C57BL/6 mouse embryos [2]): 293 ms
- UAPI (C57BL/6 mouse embryos [2]): 1.75
- abnormalities after one i.p. injection of 3.5 g/kg (C57BL/6 mouse embryos [2]; ip): did not produce any abnormalities
- outcome after one i.p. injection of 4.5 g/kg (C57BL/6 mouse embryos [2]; ip): cardiac abnormalities, but the pregnant mouse appeared sickly
- Hex and Isl-1 expression in the heart fields (Hex and Isl-1 expression): suppressed
- embryos with cardiac valve anomalies (avian embryos; 25% and 30% EtOH, stage 4): 68%
- embryos with normal heart development (avian embryos; 25% and 30% EtOH, stage 4, FA (10 mg/ml) concurrently, in vitro and in ovo): 32%
- morphological defects (avian embryos; EtOH in vitro at HH stage 4): delayed growth and severe cardiac malformations
- effects of 10% EtOH in ovo (avian embryos; quail eggs stage 4, microinjected into airspace): no adverse effects
- teratogenic EtOH dose (avian embryos; stage 4 avian embryos): 25-30%

Molecule: O[C@H]1[C@H](O)[C@@H](O)[C@H](O)[C@@H](O)[C@H]1O [Inositol, myo-inositol]
- % Normal Hearts (chick embryos; [6]): 60%
- Abnormal (number of embryos) (chick embryos; [6]): 2
- Normal (number of embryos) (chick embryos; [6]): 3
- % Normal Hearts (chick embryos; HH stage 3 +/4, HCy 50 μM, Li 50 μM, FA 10 μM, inositol 280 mM, listed as Inositol only): 60%
- expression of NMHC-IIB and FN (HTR-8/SVneo cells): enhanced

Molecule: Wnt3A
- embryos with normal hearts / normal heart development (chick embryos; Wnt3A exposure at HH stages 3+/4, Wnt 2 ng, FA 10 μg): 18%
- minimal effective dose that induced cardiac anomalies (chick embryos; in vivo): 2 ng/mL
- minimal effective dose that induced neural anomalies (chick embryos; in vivo): 10 ng/mL
- Hex and Isl1 expression in the cardiogenic crescent [3]: suppressed
